Data set [1] deals with T1, human serum albumin (HSA) (Homo sapiens, UniProt P02768).
T1 construct: purchased Sigma-Aldrich Co. (St. Louis, MO, USA)
Put plainly: HSA fluorescence emission quenching (albumin binding). The conditions noted are these: for ΔI/Io (%) quenching of HSA fluorescence: HSA 3 μM, λex 295 nm, λem 351 nm; for K albumin-binding constant (HSA): Scatchard equation; for Kq albumin-quenching constant (HSA): Stern–Volmer, τo = 10^−8 s; for relative HSA fluorescence emission intensity (I/Io, %) remaining: λem,max = 351 nm, up to, % of the initial HSA fluorescence. As for the experimental part: The albumin-binding study for complexes 1–3 was performed via fluorescence emission quenching experiments using BSA (3 μM) or HSA (3 μM), respectively, in a buffer solution (containing 15-mM trisodium citrate and […] at pH 7.0). The quenching of the emission intensity of tryptophan residues of BSA at 343 nm or HSA at 351 nm was monitored using complexes 1–3 as quenchers with increasing concentrations. The fluorescence emission spectra were recorded in the range of 300–500 nm, with an excitation wavelength of 295 nm. The quantitative studies of the serum albumin fluorescence spectra were performed after correction by subtracting the spectra of the compounds.
The extent of the inner-filter effect can be roughly estimated with the following formula:(2) Icorr=Imeas×10^ε(λexc)cd/2×10^ε(λem)cd/2 where Icorr = corrected intensity, Imeas = the measured intensity, c = the concentration of the quencher, d = the cuvette (1 cm), ε(λexc), and ε(λem) = the ε of the quencher at the excitation and the emission wavelength, respectively, as calculated from the UV-vis spectra of the complexes.
The Stern–Volmer and Scatchard graphs are used in order to study the interaction of a quencher with serum albumins. The Stern–Volmer quenching equation is used:(3) Io/I=1+Kq×τ0×[Q]=1+KSV×[Q] where Io = the initial tryptophan fluorescence intensity of SA, I = the tryptophan fluorescence intensity of SA after the addition of the quencher, Kq = the quenching constants of SA, KSV = the Stern–Volmer constant, τo = the average lifetime of SA without the quencher, and [Q] = the concentration of the quencher. The value of KSV (M^−1) can be obtained by the slope of the diagram Io/I versus [Q]. Taking τo = 10^−8 s as the fluorescence lifetime of tryptophan in SA, the value of Kq (M^−1s^−1) is calculated from the equation:(4) KSV=Kq×τo and from the Scatchard equation [130]:(5) ΔI/Io/[Q]=n×K−K×ΔI/Io where n is the number of binding sites per albumin and K is the SA-binding constant, K (in M^−1) is calculated from the slope in plots (ΔI/Io)/[Q] versus (ΔI/Io), and n is given by the ratio of y-intercept to the slope.

A short description of data set [2]: ABTS radical cation scavenging. The class given is biochemical. The conditions noted are these: compound 0.1 mM; 1 min after mixing. As for the experimental part: (§1) The antioxidant activity of complexes 1–3 was evaluated via their ability to scavenge the free radicals DPPH, hydroxyl, and ABTS. Each experiment was performed in triplicate and the standard deviation of absorbance was less than 10% of the mean.
Assay of radical cation scavenging activity (ABTS^+•): An ABTS cationic radical (ABTS^+•) was produced by reacting an aqueous stock solution (2 mM) of ABTS with 0.17-mM potassium persulfate and allowing the mixture to stand in the dark at room temperature for 12–16 h before use. […] Although the oxidation of ABTS commenced immediately, the absorbance became maximal and stable after 6 h. The radical was stable in this form for more than two days when stored in the dark at room temperature. The ABTS radical solution was diluted with ethanol to an absorbance of 0.70 at 734 nm. After the addition of 10 μL of complexes 1–3 or the standards (0.1 mM) in DMSO, the absorbance was recorded exactly 1 min after initial mixing. The radical scavenging activity of the complexes was expressed as the percentage inhibition of the absorbance of the initial ABTS solution (ABTS%). Trolox was used as a reference compound.

A short description of data set [3]: DPPH radical scavenging. The format is biochemical. The note with it: compound 0.1 mM; for DPPH% (DPPH scavenging ability), 20 min / DPPH% (DPPH scavenging ability), 60 min: ethanol. How it is done:
as §1
Ethanol was also used as a control solution. The absorbance at 517 nm was recorded at room temperature, two times, after 20 and 60 min, in order to examine the time-dependence of the DPPH-scavenging activity. The DPPH-scavenging activity of the compounds was expressed as the percentage reduction of the absorbance values of the initial DPPH solution (RA%). The compounds NDGA and BHT were used as reference compounds.
(The DPPH test is a chemical assay of radical scavenging.)

The nature of data set [4]: Solubility of the complexes. The format is physicochemical.
Data set [5] concerns EB–DNA adduct (CT DNA). Description: EB-displacement from EB–DNA adduct (fluorescence emission). The class given is binding, calf. The conditions noted are these: for KSV Stern–Volmer constant (EB–DNA): EB–DNA fluorescence; for relative EB–DNA fluorescence intensity (I/Io, %) remaining: λem = 592 nm, up to, % of the initial EB–DNA fluorescence; for Kq quenching constant of the EB–DNA fluorescence: τo = 23 ns. How it is done: EB-displacement studies: The competition of complexes 1–3 with EB was investigated by fluorescence emission spectroscopy in order to examine whether the complexes can displace EB from its DNA–EB conjugate. The DNA–EB conjugate was prepared by adding 20-μM EB and 26-μM CT DNA in the buffer solution (150-mM NaCl and 15-mM trisodium citrate at pH 7.0). The possible intercalating effect of the complexes was studied by the addition of a certain amount of a solution of the compound into a solution of the DNA–EB conjugate. The influence of each compound to the DNA–EB complex solution was obtained by recording the changes in the fluorescence emission spectra with the excitation wavelength (λex) at 540 nm.
The Stern–Volmer constant KSV is used to evaluate the quenching efficiency for each compound according to the Stern–Volmer equation (Equation (3)), where Io and I are the emission intensities in the absence and the presence of the quencher, respectively, and [Q] is the concentration of the quencher (i.e., complexes 1–3). The value of KSV is obtained from the Stern–Volmer plots by using the slope of the diagram Io/I versus [Q]. Taking τo = 23 ns as the fluorescence lifetime of the EB–DNA system, the EB–DNA quenching constants (Kq, in M^−1s^−1) of the compounds can be determined according to Equation (4).

We go through two substances from PMC10094617, “Iron(III) Complexes with Non-Steroidal Anti-Inflammatory Drugs: Structure, Antioxidant and Anticholinergic Activity, and Interaction with Biomolecules” (International Journal of Molecular Sciences, 2023).

T1 sequence (P02768 25-609): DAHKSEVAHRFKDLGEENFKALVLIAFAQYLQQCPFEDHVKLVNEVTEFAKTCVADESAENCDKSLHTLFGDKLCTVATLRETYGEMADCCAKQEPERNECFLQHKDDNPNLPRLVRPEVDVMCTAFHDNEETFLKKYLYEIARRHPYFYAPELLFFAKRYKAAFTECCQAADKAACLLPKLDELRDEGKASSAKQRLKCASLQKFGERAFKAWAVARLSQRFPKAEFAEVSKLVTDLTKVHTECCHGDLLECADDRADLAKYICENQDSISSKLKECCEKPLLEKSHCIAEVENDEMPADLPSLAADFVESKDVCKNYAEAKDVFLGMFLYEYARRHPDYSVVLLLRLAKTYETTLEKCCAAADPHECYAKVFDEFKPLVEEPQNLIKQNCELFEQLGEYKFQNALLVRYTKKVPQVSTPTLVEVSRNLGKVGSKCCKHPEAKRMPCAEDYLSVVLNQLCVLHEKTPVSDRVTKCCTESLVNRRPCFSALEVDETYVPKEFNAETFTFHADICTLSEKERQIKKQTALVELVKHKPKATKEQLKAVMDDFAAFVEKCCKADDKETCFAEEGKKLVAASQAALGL

In the case of “[Fe3O(dicl)6(MeOH)3][FeCl4]·Hdicl·1.5MeOH∙H2O [Complex 3]”, in data set [1], the “ΔI/Io (%) quenching of HSA fluorescence” value was found to be 96.5%; the “K albumin-binding constant (HSA)” value is reported as 2.42 (±0.17) × 10^5 M^−1; the “Kq albumin-quenching constant (HSA)” value is on record as 5.22 (±0.35) × 10^13 M^−1s^−1; the “relative HSA fluorescence emission intensity (I/Io, %) remaining” value is 3.5%. In data set [2], the “ABTS% (ABTS radical scavenging activity)” value was 87.72 ± 0.36%. Also, in data set [3], the “DPPH% (DPPH scavenging ability), 20 min” value is recorded as 18.94 ± 0.73% and the “DPPH% (DPPH scavenging ability), 60 min” value worked out at 18.98 ± 0.74%. In addition, the solubility result in data set [4] is reported as “Soluble in DMSO”. Moreover, in data set [5], the “KSV Stern–Volmer constant (EB–DNA)” value is listed as 1.53 (±0.51) × 10^6 M^−1; the “relative EB–DNA fluorescence intensity (I/Io, %) remaining” value turned out to be 25.7%; the “Kq quenching constant of the EB–DNA fluorescence” value is listed as 6.66 (±0.23) × 10^13 M^−1s^−1. For the same substance, in data set [5] ([EB] = 20 μM, [DNA] = 26 μM, λex 540 nm, λem 592 nm), the “ΔI/Io (%) EB–DNA fluorescence quenching” value was found to be 74.3%.

On to [Fe3O(dicl)6(py)3]Cl∙py [Complex 2], for which, in data set [1], the “ΔI/Io (%) quenching of HSA fluorescence” value was 99.4%; the “K albumin-binding constant (HSA)” value is recorded as 3.87 (±0.42) × 10^5 M^−1; the “Kq albumin-quenching constant (HSA)” value is listed as 6.09 (±0.30) × 10^13 M^−1s^−1; the “relative HSA fluorescence emission intensity (I/Io, %) remaining” value is 0.6%. The “ABTS% (ABTS radical scavenging activity)” value in data set [2] stood at 85.39 ± 0.52%. In data set [3], the “DPPH% (DPPH scavenging ability), 20 min” value amounted to 23.12 ± 0.37% and the “DPPH% (DPPH scavenging ability), 60 min” value stood at 22.97 ± 0.17%. Besides, the “DPPH% (span over 20-min and 60-min treatments)” value in data set [3] (20 min and 60 min) is 22.97–23.12%. The solubility entry in data set [4] is “Soluble in DMSO”. For the same substance, in data set [5], the “KSV Stern–Volmer constant (EB–DNA)” value is 6.15 (±0.29) × 10^5 M^−1; the “relative EB–DNA fluorescence intensity (I/Io, %) remaining” value turned out to be 41.8%; the “Kq quenching constant of the EB–DNA fluorescence” value was 2.68 (±0.56) × 10^13 M^−1s^−1.
